Source: patent US8163929B2, “Dihydropyridone amides as P2X7 modulators” (Roche Palo Alto LLC, priority 2008, dated 2012)

Biological target: T1, P2X7 (UniProt Q99572)
T1 sequence (Q99572 1-595): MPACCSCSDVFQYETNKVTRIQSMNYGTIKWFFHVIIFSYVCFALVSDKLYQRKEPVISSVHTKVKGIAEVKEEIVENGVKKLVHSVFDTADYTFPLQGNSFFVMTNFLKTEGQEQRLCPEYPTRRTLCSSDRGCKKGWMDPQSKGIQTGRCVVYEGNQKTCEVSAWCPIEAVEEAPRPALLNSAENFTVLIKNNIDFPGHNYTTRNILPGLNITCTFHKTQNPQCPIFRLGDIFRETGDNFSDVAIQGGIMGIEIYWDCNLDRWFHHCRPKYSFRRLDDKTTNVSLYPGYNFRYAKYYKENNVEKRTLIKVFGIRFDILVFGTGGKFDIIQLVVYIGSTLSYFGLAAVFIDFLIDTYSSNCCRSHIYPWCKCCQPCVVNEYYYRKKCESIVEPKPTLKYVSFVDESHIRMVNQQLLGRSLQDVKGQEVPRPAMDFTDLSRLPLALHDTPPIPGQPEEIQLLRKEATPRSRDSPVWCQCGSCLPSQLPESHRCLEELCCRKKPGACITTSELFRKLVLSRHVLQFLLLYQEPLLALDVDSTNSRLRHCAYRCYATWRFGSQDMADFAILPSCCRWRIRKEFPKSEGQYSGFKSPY
Experiment: P2X7 activity of Table 1
Format: cell-based
Conditions: pIC50 values for P2X7
Procedure: Stock solutions of compounds were prepared from powders as a 10 mM DMSO stock solution. These solutions were stored at RT during the two week period of these experiments to prevent freeze-thaw of the DMSO stocks. The DMSO stocks were added to the appropriate assay buffer at a concentration of 10 μM, and then diluted serially to the final concentrations that were tested. […] The aqueous solutions of compounds as well as ATP (Sigma A7699) and BzATP (Sigma B6396) were prepared fresh for each day of experiment.
1321N1 cells stably expressing the full length human P2X7 gene (1321N1-hP2X7) and HEK293 cells stably expressing the full length rat P2X7 gene (HEK293-rP2X7) were obtained from the Roche Cell Culture Facility. 1321N1-hP2X7 cells were grown in Dulbecco's Modified Eagle's Medium (DMEM) high glucose supplemented with 10% FBS and 250 μg/mL G418. HEK293-rP2X7 cells were grown in DMEM/F-12 supplemented with 10% FBS, 1 mM CaCl2, 2 mM MgCl2, 2 mM L-Glutamine and 500 μg/ml G418. Cells were split such that they never became >70% confluent.
On the day prior to the experiment, 1321N1-hP2X7 or HEK293-rP2X7 cells were released into suspension with calcium-free PBS+Versene and washed by centrifugation with calcium-free PBS to remove the Versene. Cells were resuspended in growth medium at a density of 2.5×10^5 cells/mL and seeded into black walled, clear bottom 96 well plates (50,000 cells/well) approximately 18 hr prior to intracellular calcium flux experiments.
On the day of the experiment, plates were washed with FLIPR buffer (calcium- and magnesium-free Hank's Balanced Salt Solution (HBSS) supplemented with 10 mM Hepes, 2.5 mM probenecid and 2 mM calcium chloride) using a BIO-TEK 96 channel plate washer and incubated with […] fluo-3 dye at 37° C. for one hr. The dye was then removed by plate washing and the cells were allowed to equilibrate for 20 min at room temperature with antagonist or vehicle (FLIPR buffer). Agonist (100 μM BzATP final concentration for hP2X7; 5 μM BzATP final concentration or rP2X7) was added online with the FLIPR and fluorescence measurements made at 1 sec intervals for 60 sec followed by 3 sec intervals for a further 4 min (5 min total). A final addition of 5 μM ionomycin was made and the maximal BzATP-evoked fluorescence normalized to the maximal ionomycin-evoked fluorescence.

Compound | pIC50
Cc1cc(-c2ccc(C)c(NC(=O)C3=CNC(=O)C[C@H]3c3ccc(F)cc3)c2)n(C)n1 [Compound 21, (S)-4-(4-Fluoro-phenyl)-6-oxo-1,4,5,6-tetrahydro-pyridine-3-carboxylic acid [5-(2,5-dimethyl-2H-pyrazol-3-yl)-2-methyl-phenyl]-amide] | 6.525
Cc1cc(-c2ccc(C)c(NC(=O)C3=CNC(=O)C[C@H]3c3cccc(F)c3)c2)n[nH]1 [Compound 22, (S)-4-(3-Fluoro-phenyl)-6-oxo-1,4,5,6-tetrahydro-pyridine-3-carboxylic acid [2-methyl-5-(5-methyl-1H-pyrazol-3-yl)-phenyl]-amide] | 7.75
Cc1ncn(-c2ccc(C)c(NC(=O)C3=CNC(=O)C[C@H]3c3ccc(F)cc3)c2)n1 [Compound 27, (S)-4-(4-Fluoro-phenyl)-6-oxo-1,4,5,6-tetrahydro-pyridine-3-carboxylic acid [2-methyl-5-(3-methyl-[1,2,4]triazol-1-yl)-phenyl]-amide] | 6.28
Cc1cn(-c2ccc(C)c(NC(=O)C3=CNC(=O)C[C@H]3c3ccc(F)cc3)c2)nn1 [Compound 28, (S)-4-(4-Fluoro-phenyl)-6-oxo-1,4,5,6-tetrahydro-pyridine-3-carboxylic acid [2-methyl-5-(4-methyl-[1,2,3]triazol-1-yl)-phenyl]-amide] | 7.145
Cc1cnn(-c2ccc(C)c(NC(=O)C3=CNC(=O)C[C@H]3c3ccc(F)cc3)c2)c1 [Compound 29, (S)-4-(4-Fluoro-phenyl)-6-oxo-1,4,5,6-tetrahydro-pyridine-3-carboxylic acid [2-methyl-5-(4-methyl-pyrazol-1-yl)-phenyl]-amide] | 7.99
Cc1cc(-c2ccc(C)c(NC(=O)C3=CN(C)C(=O)C[C@H]3c3ccc(F)cc3)c2)n[nH]1 [Compound 31, (S)-4-(4-Fluoro-phenyl)-1-methyl-6-oxo-1,4,5,6-tetrahydro-pyridine-3-carboxylic acid [2-methyl-5-(5-methyl-1H-pyrazol-3-yl)-phenyl]-amide] | 7.35
CCCn1nccc1-c1ccc(C)c(NC(=O)C2=CNC(=O)C[C@H]2c2ccc(F)cc2)c1 [Compound 32, (S)-4-(4-Fluoro-phenyl)-6-oxo-1,4,5,6-tetrahydro-pyridine-3-carboxylic acid [2-methyl-5-(2-propyl-2H-pyrazol-3-yl)-phenyl]-amide] | 6.885
Cc1cc(-c2ccc(Cl)c(NC(=O)C3=CNC(=O)C[C@H]3c3ccc(F)cc3)c2)n[nH]1 [Compound 33, (S)-4-(4-Fluoro-phenyl)-6-oxo-1,4,5,6-tetrahydro-pyridine-3-carboxylic acid [2-chloro-5-(5-methyl-1H-pyrazol-3-yl)-phenyl]-amide] | 7.4067
Cc1cc(Cl)c(CN2CCOC2=O)cc1NC(=O)C1=CNC(=O)C[C@H]1c1ccc(F)cc1 [Compound 35, (S)-4-(4-Fluoro-phenyl)-6-oxo-1,4,5,6-tetrahydro-pyridine-3-carboxylic acid [4-chloro-2-methyl-5-(2-oxo-oxazolidin-3-ylmethyl)-phenyl]-amide] | 8.135
Cc1cc(-c2cc(NC(=O)C3=CNC(=O)C[C@H]3c3ccc(F)cc3)ccc2Cl)n[nH]1 [Compound 36, (S)-4-(4-Fluoro-phenyl)-6-oxo-1,4,5,6-tetrahydro-pyridine-3-carboxylic acid [4-chloro-3-(5-methyl-1H-pyrazol-3-yl)-phenyl]-amide] | 5.92
Cc1ccc(-n2ncc(=O)n(C)c2=O)cc1NC(=O)C1=CNC(=O)C[C@H]1c1ccc(F)cc1 [Compound 37, (S)-4-(4-Fluoro-phenyl)-6-oxo-1,4,5,6-tetrahydro-pyridine-3-carboxylic acid [2-methyl-5-(4-methyl-3,5-dioxo-4,5-dihydro-3H-[1,2,4]triazin-2-yl)-phenyl]-amide] | 7.76
Cc1ccc(-c2cc(C)n(CCO)n2)cc1NC(=O)C1=CN(C)C(=O)C[C@H]1c1ccc(F)cc1 [Compound 38, (S)-4-(4-Fluoro-phenyl)-1-methyl-6-oxo-1,4,5,6-tetrahydro-pyridine-3-carboxylic acid {5-[1-(2-hydroxy-ethyl)-5-methyl-1H-pyrazol-3-yl]-2-methyl-phenyl}-amide] | 7.46
Cc1ccc(-n2ncc(=O)n(CCO)c2=O)cc1NC(=O)C1=CNC(=O)C[C@H]1c1ccc(F)cc1 [Compound 39, (S)-4-(4-Fluoro-phenyl)-6-oxo-1,4,5,6-tetrahydro-pyridine-3-carboxylic acid {5-[4-(2-hydroxy-ethyl)-3,5-dioxo-4,5-dihydro-3H-[1,2,4]triazin-2-yl]-2-methyl-phenyl}-amide] | 7.76
Cc1cc(-c2cc(NC(=O)C3=CNC(=O)C[C@H]3c3ccc(F)cc3)c(C)cc2F)n[nH]1 [Compound 41, (S)-4-(4-Fluoro-phenyl)-6-oxo-1,4,5,6-tetrahydro-pyridine-3-carboxylic acid [4-fluoro-2-methyl-5-(5-methyl-1H-pyrazol-3-yl)-phenyl]-amide] | 8.048
COCCn1nc(-c2ccc(C)c(NC(=O)C3=CNC(=O)C[C@H]3c3ccc(F)cc3)c2)cc1C [Compound 42, (S)-4-(4-Fluoro-phenyl)-6-oxo-1,4,5,6-tetrahydro-pyridine-3-carboxylic acid {5-[1-(2-methoxy-ethyl)-5-methyl-1H-pyrazol-3-yl]-2-methyl-phenyl}-amide] | 7.3

Further lines, results first:

pIC50 | Compound
7.265 | Cc1cc(-c2ccc(C)c(NC(=O)C3=CNC(=O)C[C@H]3c3ccc(F)cc3)c2)on1 [Compound 26, (S)-4-(4-Fluoro-phenyl)-6-oxo-1,4,5,6-tetrahydro-pyridine-3-carboxylic acid [2-methyl-5-(3-methyl-isoxazol-5-yl)-phenyl]-amide]
6.275 | Cc1nnc(-c2ccc(C)c(NC(=O)C3=CNC(=O)C[C@H]3c3ccc(F)cc3)c2)o1 [Compound 30, (S)-4-(4-Fluoro-phenyl)-6-oxo-1,4,5,6-tetrahydro-pyridine-3-carboxylic acid [2-methyl-5-(5-methyl-[1,3,4]oxadiazol-2-yl)-phenyl]-amide]
7.78 | Cc1ccc(-c2nnc(C)n2C)cc1NC(=O)C1=CNC(=O)C[C@H]1c1ccc(F)cc1 [Compound 34, (S)-4-(4-Fluoro-phenyl)-6-oxo-1,4,5,6-tetrahydro-pyridine-3-carboxylic acid [5-(4,5-dimethyl-4H-[1,2,4]triazol-3-yl)-2-methyl-phenyl]-amide]
7.183 | Cc1cc(-c2ccc(C)c(NC(=O)C3=CNC(=O)C[C@H]3c3ccc(F)cc3)c2)no1 [Compound 40, (S)-4-(4-Fluoro-phenyl)-6-oxo-1,4,5,6-tetrahydro-pyridine-3-carboxylic acid [2-methyl-5-(5-methyl-isoxazol-3-yl)-phenyl]-amide]
7.54 | Cc1ccc(-c2cnccn2)cc1NC(=O)C1=CNC(=O)C[C@H]1c1ccc(F)cc1 [Compound 43, (S)-4-(4-Fluoro-phenyl)-6-oxo-1,4,5,6-tetrahydro-pyridine-3-carboyxlic acid (2-methyl-5-pyrazin-2-yl-phenyl)-amide]
7.567 | Cc1ccc(-c2ccc(C)c(NC(=O)C3=CNC(=O)C[C@H]3c3ccc(F)cc3)c2)nn1 [Compound 44, (S)-4-(4-Fluoro-phenyl)-6-oxo-1,4,5,6-tetrahydro-pyridine-3-carboxylic acid [2-methyl-5-(6-methyl-pyridazin-3-yl)-phenyl]-amide]
7.01 | Cc1cnc(-c2ccc(C)c(NC(=O)C3=CNC(=O)C[C@H]3c3ccc(F)cc3)c2)cn1 [Compound 45, (S)-4-(4-Fluoro-phenyl)-6-oxo-1,4,5,6-tetrahydro-pyridine-3-carboxylic acid [2-methyl-5-(5-methyl-pyrazin-2-yl)-phenyl]-amide]
